Results taken from US5449820A, “Method of preparing high purity 2,6-naphthalene dicarboxylic acid” (Mitsubishi Chemical Corporation, priority 1994, dated 1995).

Assay: solubility of 2,6-naphthalene dicarboxylic acid with respect to high temperature and high pressure water
Format: physicochemical
Conditions: for solubility in water containing 5 wt % of isopropanol: water containing 5 wt % of isopropanol (entrainer)
Description: Although the quantity of water for use in the dissolving process differs depending upon the dissolving temperature, the quantity of water must be larger than a quantity (the saturated solubility) in which coarse 2,6-naphthalene dicarboxylic acid can be completely dissolved. In an example case where water containing 5 wt % of isopropanol is used and the dissolving temperature is 300° C., five parts or more by weight of water with respect to one part by weight of coarse 2,6-naphthalene dicarboxylic acid is required. An example of the results of measurements of the solubility of 2,6-naphthalene dicarboxylic acid with respect to high temperature and high pressure water is shown in Table 1.

Solubility in water (225 °C, 27 atm): 0.36 wt % | Solubility in water (250 °C, 40 atm): 1.13 wt % | solubility in water containing 5 wt % of isopropanol (250 °C): 4.2 wt % | Solubility in water (275 °C, 60 atm): 3.28 wt % | Solubility in water (300 °C, 86 atm): 8.34 wt % | solubility in water containing 5 wt % of isopropanol (300 °C): 18.0 wt % | Solubility in water (325 °C, 121 atm): 18.6 wt % | Solubility in water (375 °C, 230 atm): 34.2 wt % | Solubility in water (386 °C, 230 atm): 36.7 wt % | solubility with respect to water (dissolved) (about 370 °C, critical temperature for water): ≥ 30 wt %
SMILES: O=C(O)c1ccc2cc(C(=O)O)ccc2c1 [2,6-naphthalene dicarboxylic acid]
